Measured values taken from PubChem BioAssay AID256 (DTP/NCI, 2004).
Toxic doses and inconclusive results are not listed.

System: CD2F1 mice, L1210 leukemia ip, survival T/C
Experiment: NCI In Vivo Anticancer Drug Screen. Data for tumor model L1210 Leukemia (intraperitoneal) in CD2F1 (CDF1) mice
Conditions: endpoint: mean survival time, higher = longer survival
Summary of the method: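 Read-out first: treated-group measurement over vehicle-control measurement, expressed as a ratio. Animals bore a transplanted tumor line and were dosed with compound or vehicle.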

[1] = dose: 200.0 mg/kg/injection, schedule: Q01DX009 (ip), vehicle: saline
[2] = dose: 100.0 mg/kg/injection, schedule: Q01DX009 (ip), vehicle: saline with Tween-80
[3] = dose: 100.0 mg/kg/injection, schedule: Q04DX003 (ip), vehicle: saline with Tween-80
[4] = dose: 200.0 mg/kg/injection, schedule: Q01DX009 (ip), vehicle: saline with Tween-80
[5] = dose: 200.0 mg/kg/injection, schedule: Q04DX003 (ip), vehicle: saline with Tween-80
[6] = dose: 400.0 mg/kg/injection, schedule: Q01DX009 (ip), vehicle: saline with Tween-80
[7] = dose: 400.0 mg/kg/injection, schedule: Q04DX003 (ip), vehicle: saline with Tween-80

In the case of `CCOC(=O)c1oc(C)nc1C`, the T/C (dose: 12.5 mg/kg/injection, schedule: Q01DX001 (ip), vehicle: Klucel (hydroxypropylcellulose) (HPC)) is reported as 90 % of control, the T/C (dose: 25.0 mg/kg/injection, schedule: Q01DX001 (ip), vehicle: Klucel (hydroxypropylcellulose) (HPC)) is reported as 104 % of control and the T/C (dose: 50.0 mg/kg/injection, schedule: Q01DX001 (ip), vehicle: Klucel (hydroxypropylcellulose) (HPC)) is reported as 98 % of control. The T/C (dose: 100.0 mg/kg/injection, schedule: Q01DX001 (ip), vehicle: Klucel (hydroxypropylcellulose) (HPC)) was 101 % of control and the T/C (dose: 200.0 mg/kg/injection, schedule: Q01DX001 (ip), vehicle: Klucel (hydroxypropylcellulose) (HPC)) was 98 % of control.
With `CC(C)c1ccc2c(c1)CC[C@H]1[C@](C)(CN=C(N)CCl)CCC[C@]21C` the T/C (dose: 100.0 mg/kg/injection, schedule: Q04DX002 (ip), vehicle: saline with Tween-80) was 102 % of control and the T/C (dose: 200.0 mg/kg/injection, schedule: Q04DX002 (ip), vehicle: saline with Tween-80) was 95 % of control.
With `C1CN(CC2COC(CN3CCOCC3)CO2)CCO1` (stereo not drawn) the T/C (dose: 100.0 mg/kg/injection, schedule: Q01DX009 (ip), vehicle: saline) was 102 % of control, the T/C [1] was 102 % of control and the T/C (dose: 400.0 mg/kg/injection, schedule: Q01DX009 (ip), vehicle: saline) was 104 % of control.
With `Cc1nc2c(=O)n(C3OC(CO)C(O)C3O)cnc2o1` (stereo not drawn) the T/C (dose: 100.0 mg/kg/injection, schedule: Q01DX005 (ip), vehicle: saline) was 103 % of control.
For `CC(=O)CCc1ccc(O)cc1`, the T/C [2] was 94 % of control, the T/C [3] was 97 % of control and the T/C [4] was 93 % of control. For the same compound, the T/C [5] was 92 % of control, the T/C [6] was 94 % of control and the T/C [7] was 92 % of control.
For `CN(N=O)C(=O)NC1C(CO)OC2OC(C)(C)OC21` (stereo not drawn), the T/C (dose: 100.0 mg/kg/injection, schedule: Q04DX003 (ip), vehicle: saline sonified) was 94 % of control, the T/C (dose: 132.0 mg/kg/injection, schedule: Q01DX009 (ip), vehicle: saline) was 151 % of control and the T/C [1] was 198 % of control. The T/C (dose: 200.0 mg/kg/injection, schedule: Q04DX003 (ip), vehicle: saline sonified) was 100 % of control, the T/C (dose: 300.0 mg/kg/injection, schedule: Q01DX009 (ip), vehicle: saline) was 105 % of control and the T/C (dose: 400.0 mg/kg/injection, schedule: Q04DX003 (ip), vehicle: saline sonified) was 107 % of control.
For `C(=C\c1cccnc1)/c1ccncc1`, the T/C [2] was 97 % of control, the T/C [4] was 95 % of control and the T/C [6] was 106 % of control.
For `OCC1OC(OC2C(CO)OC(Sc3ccccc3)C(O)C2O)C(O)C(O)C1O` (stereo not drawn), the T/C [3] was 97 % of control, the T/C (dose: 100.0 mg/kg/injection, schedule: Q04DX003 (ip), vehicle: saline) was 103 % of control and the T/C [5] was 95 % of control. The T/C (dose: 200.0 mg/kg/injection, schedule: Q04DX003 (ip), vehicle: saline) was 103 % of control, the T/C [7] was 97 % of control and the T/C (dose: 400.0 mg/kg/injection, schedule: Q04DX003 (ip), vehicle: saline) was 95 % of control.
For `NC(=O)NNC(=O)C(Cl)(Cl)Cl`, the T/C (dose: 100.0 mg/kg/injection, schedule: Q04DX002 (ip), vehicle: saline) was 103 % of control.
With `O=C(O)c1cc(-c2ccccc2)nc2c1ccc1ccccc12` the T/C (dose: 100.0 mg/kg/injection, schedule: Q01DX001 (ip), vehicle: saline) was 103 % of control, the T/C (dose: 200.0 mg/kg/injection, schedule: Q01DX001 (ip), vehicle: saline) was 102 % of control and the T/C (dose: 400.0 mg/kg/injection, schedule: Q01DX001 (ip), vehicle: saline) was 97 % of control.
In the case of `COc1cccc2c1C(=O)c1c(O)c3c(c(O)c1C2=O)C[C@@](O)(C(=O)CSc1ccccc1)C[C@@H]3OC1CC(N)C(O)C(C)O1` (stereo partly drawn), the T/C (dose: 0.78 mg/kg/injection, schedule: Q01DX009 (ip), vehicle: water) is reported as 107 % of control, the T/C (dose: 1.56 mg/kg/injection, schedule: Q01DX009 (ip), vehicle: water) is reported as 106 % of control and the T/C (dose: 3.13 mg/kg/injection, schedule: Q01DX009 (ip), vehicle: water) is reported as 101 % of control. For the same compound, the T/C (dose: 6.25 mg/kg/injection, schedule: Q01DX009 (ip), vehicle: water) was 106 % of control and the T/C (dose: 12.5 mg/kg/injection, schedule: Q01DX009 (ip), vehicle: water) was 101 % of control.
With `COc1ccc(/C=N/NC(=O)CNC(=O)c2ccccc2)cc1` the T/C [2] was 92 % of control and the T/C [6] was 88 % of control.
